{"source": "patent US20190216089A1", "about": "“COMPOUNDED HERBICIDAL COMPOSITION CONTAINING SHUANGZUOCAOTONG AND METHOD OF USING THE SAME” (priority 2016, published 2019)", "key": {"[1]": {"system": "Capsella bursa-pastoris", "test": "Pot-culture greenhouse foliage treatment, fresh weight inhibition (Gowing method)", "assay_type": "in vivo", "conditions": "foliage spray", "experimental": "(§1) The above weeds were cultivated by a pot culture method. […] Full and uniform weed seeds were selected, soaked in warm water at 25° C. for 6 hours, and germinated in a 28° C. biochemical incubator (darkness). […] A certain amount of water was added to the enamel pan regularly to keep the soil moist.\n(§2) Since these several agents were soluble in acetone, any two TCs were dissolved in acetone, and diluted with an aqueous solution containing 0.1% emulsifier T-80. The dilution was performed as required.\n(§3) A ratio of glufosinate ammonium or glyphosate and shuangzuocaotong and amounts thereof in each group depends on the characteristics and toxicity of the two agents, as well as the main application purpose of a corresponding formulation. Glyphosate is a non-selective herbicide and is absorbed by foliage and translocated to various parts of the plant, which is different from the mechanism of action of glufosinate ammonium, i.e., killing roots. […] The control spectrum of Shuangzuocaotong is complementary to that of glyphosate or that of glufosinate ammonium to some extent. […] Based on the pre-tests in this study, the doses of glyphosate, glufosinate ammonium, and Shuangzuocaotong applied alone and in combination were shown in the Table 1 and Table 2, and a total 15 groups were designed, respectively. Water containing the solvent and emulsifying agent same with the above groups but free of the agents was used as a blank control.\n(§4) 3 pots with 20 weed seeds per pot were treated in one treatment with […] per treatment, that is, a total of 60 weeds were treated in one treatment.\n(§5) The agents were used for only once in the experiment. In the stage of weeds with 2 leaves and 1 core, the weeds were thinned out to maintain 15 weeds per pot and 45 weeds for each treatment, then continued to be cultured until the four true leaves of Descurainia sophia and Capsella bursa-pastoris emerged, and treated.\n(§6) The well-cultured weeds were evenly placed on a platform with an area of 0.5 m^2, and a solution of agents was sprayed on the foliage thereof by the 3WP-2000-type walking spray tower at a dosage of 30 kg/ha and at a spray pressure of 0.3 MPa. After all the solution was sprayed, the valve was closed. After 30 seconds, the door of the spray tower was opened, and the nutritional bowl was taken out. Then the valve was opened, and the spray tube was cleaned by spraying 50 ml of water.\n(§7) A pot-culture method was employed. For the cultivation of weeds, please refer to the Section 1.1, and “Pesticide guidelines for laboratory bioactivity tests—herbicides”. As to a method for applying agents, please refer to the section 2.3.2, that is, a method for foliage treatment was employed.\n(§8) A method for investigating absolute number was employed, wherein whole seedlings of survival weeds were cut off with a blade along the soil surface, and the fresh weight of the weeds was weighed with an analytical balance. For dead weeds, the fresh weight thereof was zero.\n(§9) The investigation was performed after 20 days of the treatment for only once."}, "[2]": {"system": "Descurainia Sophia", "test": "Pot-culture greenhouse foliage treatment, fresh weight inhibition (Gowing method)", "assay_type": "in vivo", "conditions": "foliage spray", "experimental": "as §1, §2, §3, §4, §5, §6, §7, §8, §9"}, "[3]": {"conditions": "dose 1125 g/hm^2, after 20 days"}, "[4]": {"conditions": "dose 67.5 g/hm^2, after 20 days (Table 2)"}, "[5]": {"conditions": "dose 90 g/hm^2, after 20 days (Table 2)"}, "[6]": {"conditions": "dose 112.5 g/hm^2, after 20 days (Table 2)"}}, "data": [{"smiles": "CP(=O)(O)CCC(N)C(=O)O.N", "note": "(racemic) [Glufosinate ammonium, ammonium-DL-homoalanin-4-yl(methyl)phosphinate]", "values": [{"measurement": "actual fresh weight inhibition rate", "setting": "[1]; dose 300 g/hm^2, after 20 days", "value": 48.2, "unit": "%"}, {"measurement": "actual fresh weight inhibition rate", "setting": "[1]; dose 450 g/hm^2, after 20 days", "value": 73.2, "unit": "%"}, {"measurement": "actual fresh weight inhibition rate", "setting": "[1]; dose 600 g/hm^2, after 20 days", "value": 93.5, "unit": "%"}, {"measurement": "actual fresh weight inhibition rate", "setting": "[2]; dose 300 g/hm^2, after 20 days", "value": 49.8, "unit": "%"}, {"measurement": "actual fresh weight inhibition rate", "setting": "[2]; dose 450 g/hm^2, after 20 days", "value": 71.6, "unit": "%"}, {"measurement": "actual fresh weight inhibition rate", "setting": "[2]; dose 600 g/hm^2, after 20 days", "value": 92.6, "unit": "%"}]}, {"smiles": "O=C(O)CNCP(=O)(O)O", "note": "[glyphosate, N-(phosphonomethyl)glycine]", "values": [{"measurement": "actual fresh weight inhibition rate", "setting": "[1]; dose 675 g/hm^2, after 20 days", "value": 53.2, "unit": "%"}, {"measurement": "actual fresh weight inhibition rate", "setting": "[1]; dose 900 g/hm^2, after 20 days", "value": 74.6, "unit": "%"}, {"measurement": "actual fresh weight inhibition rate", "setting": "[1]; [3]", "value": 92.4, "unit": "%"}, {"measurement": "actual fresh weight inhibition rate", "setting": "[2]; dose 675 g/hm^2, after 20 days", "value": 55.2, "unit": "%"}, {"measurement": "actual fresh weight inhibition rate", "setting": "[2]; dose 900 g/hm^2, after 20 days", "value": 73.1, "unit": "%"}, {"measurement": "actual fresh weight inhibition rate", "setting": "[2]; [3]", "value": 91.4, "unit": "%"}]}, {"smiles": "Cc1nn(C)cc1C(=O)Oc1c(C(=O)c2ccc(C(F)(F)F)cc2S(C)(=O)=O)c(C)nn1C", "note": "[Shuangzuocaotong]", "values": [{"measurement": "actual fresh weight inhibition rate", "setting": "[1]; dose 15 g/hm^2, after 20 days", "value": 53.2, "unit": "%"}, {"measurement": "actual fresh weight inhibition rate", "setting": "[1]; dose 30 g/hm^2, after 20 days", "value": 75.2, "unit": "%"}, {"measurement": "actual fresh weight inhibition rate", "setting": "[1]; dose 45 g/hm^2, after 20 days", "value": 91.3, "unit": "%"}, {"measurement": "actual fresh weight inhibition rate", "setting": "[1]; [4]", "value": 54.1, "unit": "%"}, {"measurement": "actual fresh weight inhibition rate", "setting": "[1]; [5]", "value": 72.4, "unit": "%"}, {"measurement": "actual fresh weight inhibition rate", "setting": "[1]; [6]", "value": 93.5, "unit": "%"}, {"measurement": "actual fresh weight inhibition rate", "setting": "[2]; dose 15 g/hm^2, after 20 days", "value": 54.2, "unit": "%"}, {"measurement": "actual fresh weight inhibition rate", "setting": "[2]; dose 30 g/hm^2, after 20 days", "value": 76.2, "unit": "%"}, {"measurement": "actual fresh weight inhibition rate", "setting": "[2]; dose 45 g/hm^2, after 20 days", "value": 90.2, "unit": "%"}, {"measurement": "actual fresh weight inhibition rate", "setting": "[2]; [4]", "value": 53.3, "unit": "%"}, {"measurement": "actual fresh weight inhibition rate", "setting": "[2]; [5]", "value": 74.3, "unit": "%"}, {"measurement": "actual fresh weight inhibition rate", "setting": "[2]; [6]", "value": 86.2, "unit": "%"}]}]}
